Our source for the relative viability values is the supplement of paper PMC10307832.

Experiment in all cases: relative viability (nuclei count vs DMSO), 5 days (fraction); higher = more cells survive
Compound in the test “Cediranib + Navitoclax”: COc1cc2c(Oc3ccc4[nH]c(C)cc4c3F)ncnc2cc1OCCCN1CCCC1 [Cediranib] + CC1(C)CCC(c2ccc(Cl)cc2)=C(CN2CCN(c3ccc(C(=O)NS(=O)(=O)c4ccc(N[C@H](CCN5CCOCC5)CSc5ccccc5)c(S(=O)(=O)C(F)(F)F)c4)cc3)CC2)C1 [Navitoclax] (partner 0.5 µM)
In outline: (§1)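 Each reported value is a median over duplicate plates. It expresses relative viability: treated-well nuclei count divided by vehicle-well nuclei count. Lung cancer cell lines in 1536-well plates were dosed by pin tool a day after seeding, alone with one drug or with a fixed anchor-drug dose plus five library-drug doses (not always all listed) in √10 steps, and nuclei were counted after 5 days.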

Compound in the test “Cediranib + Bortezomib”: COc1cc2c(Oc3ccc4[nH]c(C)cc4c3F)ncnc2cc1OCCCN1CCCC1 [Cediranib] + CC(C)C[C@H](NC(=O)[C@H](Cc1ccccc1)NC(=O)c1cnccn1)B(O)O [Bortezomib] (partner 0.002 µM)
In short, it runs like this:
as §1

Compound in the test “Decitabine + Tozasertib”: Nc1ncn([C@H]2C[C@H](O)[C@@H](CO)O2)c(=O)n1 [Decitabine] + Cc1cc(Nc2cc(N3CCN(C)CC3)nc(Sc3ccc(NC(=O)C4CC4)cc3)n2)n[nH]1 [Tozasertib] (partner 0.1 µM)
In short, it runs like this: as §1

Compound in test [1]: O=C(C[C@H]1NCCC[C@@H]1O)Cn1cnc2cc(Br)c(Cl)cc2c1=O (racemic) [Halofuginone] + CS(=O)(=O)N1CCN(Cc2cc3nc(-c4cccc5[nH]ncc45)nc(N4CCOCC4)c3s2)CC1 [Pictilisib] (partner 1 µM)
In short, it runs like this:
as §1

For the cell line NCI-H1975, the relative viability in the test with Cediranib + Navitoclax (first compound 0.04 µM) was determined as 1.18; with Cediranib + Navitoclax (first compound 0.1265 µM), 1.13; with Cediranib + Navitoclax (first compound 0.4 µM), 0.956; in the test with Cediranib + Navitoclax (first compound 1.265 µM), 1.19; with Cediranib + Navitoclax (first compound 4 µM) it was 1.21; with Cediranib + Bortezomib (first compound 0.04 µM), 0.423. For the same cell line, the relative viability was determined as 0.479 in the test with Cediranib + Bortezomib (first compound 0.1265 µM); 0.326 with Cediranib + Bortezomib (first compound 0.4 µM); 0.432 with Cediranib + Bortezomib (first compound 1.265 µM); 0.345 in the test with Cediranib + Bortezomib (first compound 4 µM); 0.279 with Decitabine + Tozasertib (first compound 0.04 µM); 0.239 with Decitabine + Tozasertib (first compound 0.1265 µM). Moreover, the relative viability with Decitabine + Tozasertib (first compound 0.4 µM) is 0.132; with Decitabine + Tozasertib (first compound 1.265 µM), 0.152; with Decitabine + Tozasertib (first compound 4 µM) it was 0.129; in test [1] (first compound 0.001 µM) it was 0.319; in test [1] (first compound 0.003162 µM) it was 0.298; in test [1] (first compound 0.01 µM), 0.31. Moreover, the results for the relative viability in test [1] (first compound 0.03162 µM) and in test [1] (first compound 0.1 µM) were 0.225 and 0.106, respectively.

As for COR-L 105, the relative viability turned out to be 0.842 with Cediranib + Navitoclax (first compound 0.1265 µM); 0.733 in the test with Cediranib + Navitoclax (first compound 0.4 µM); 0.756 with Cediranib + Navitoclax (first compound 1.265 µM); 0.693 in the test with Cediranib + Navitoclax (first compound 4 µM); 0.666 with Cediranib + Bortezomib (first compound 0.1265 µM); 0.715 in the test with Cediranib + Bortezomib (first compound 0.4 µM). Further, the relative viability with Cediranib + Bortezomib (first compound 1.265 µM) is 0.722; in the test with Cediranib + Bortezomib (first compound 4 µM), 0.828; with Decitabine + Tozasertib (first compound 0.04 µM), 0.378; with Decitabine + Tozasertib (first compound 0.1265 µM), 0.336; with Decitabine + Tozasertib (first compound 0.4 µM) it was 0.36; with Decitabine + Tozasertib (first compound 1.265 µM), 0.365. Besides, the relative viability in the test with Decitabine + Tozasertib (first compound 4 µM) is 0.237; in test [1] (first compound 0.001 µM), 0.437; in test [1] (first compound 0.003162 µM), 0.432; in test [1] (first compound 0.01 µM) it was 0.412; in test [1] (first compound 0.03162 µM), 0.338; in test [1] (first compound 0.1 µM), 0.31.

As to EKVX, the relative viability was 1.01 with Cediranib + Navitoclax (first compound 0.04 µM); 0.74 with Cediranib + Navitoclax (first compound 0.1265 µM); 0.912 with Cediranib + Navitoclax (first compound 0.4 µM); 0.903 with Cediranib + Navitoclax (first compound 1.265 µM); 1.02 with Cediranib + Navitoclax (first compound 4 µM); 1.12 in the test with Cediranib + Bortezomib (first compound 0.04 µM). Moreover, the relative viability came out at 0.892 in the test with Cediranib + Bortezomib (first compound 0.1265 µM); 0.975 in the test with Cediranib + Bortezomib (first compound 0.4 µM); 0.939 with Cediranib + Bortezomib (first compound 1.265 µM); 0.865 with Cediranib + Bortezomib (first compound 4 µM); 0.283 with Decitabine + Tozasertib (first compound 0.04 µM); 0.266 with Decitabine + Tozasertib (first compound 0.1265 µM). The relative viability was found to be 0.247 with Decitabine + Tozasertib (first compound 0.4 µM); 0.166 with Decitabine + Tozasertib (first compound 1.265 µM); 0.148 with Decitabine + Tozasertib (first compound 4 µM); 0.442 in test [1] (first compound 0.001 µM); 0.442 in test [1] (first compound 0.003162 µM); 0.443 in test [1] (first compound 0.01 µM). Moreover, the figures for the relative viability in test [1] (first compound 0.03162 µM) and in test [1] (first compound 0.1 µM) were 0.469 and 0.354, respectively.

With NCI-H2009, the relative viability with Cediranib + Navitoclax (first compound 0.04 µM) came to 1.2; in the test with Cediranib + Navitoclax (first compound 0.1265 µM), 1.14; in the test with Cediranib + Navitoclax (first compound 0.4 µM), 1.16; in the test with Cediranib + Navitoclax (first compound 1.265 µM), 1.14; with Cediranib + Navitoclax (first compound 4 µM), 1.11; with Cediranib + Bortezomib (first compound 0.04 µM), 0.934. The relative viability with Cediranib + Bortezomib (first compound 0.1265 µM) came out at 0.246; with Cediranib + Bortezomib (first compound 0.4 µM) it was 1.04; in the test with Cediranib + Bortezomib (first compound 1.265 µM), 0.943; with Cediranib + Bortezomib (first compound 4 µM) it was 1.12; with Decitabine + Tozasertib (first compound 0.04 µM), 0.628; with Decitabine + Tozasertib (first compound 0.1265 µM), 0.451. The relative viability was determined as 0.399 with Decitabine + Tozasertib (first compound 0.4 µM); 0.312 with Decitabine + Tozasertib (first compound 1.265 µM); 0.252 with Decitabine + Tozasertib (first compound 4 µM); 1.07 in test [1] (first compound 0.001 µM); 0.878 in test [1] (first compound 0.003162 µM); 0.758 in test [1] (first compound 0.01 µM). Besides, the relative viability worked out at 0.689 in test [1] (first compound 0.03162 µM) and 0.26 in test [1] (first compound 0.1 µM).

For NCI-H838, the relative viability turned out to be 1.17 with Cediranib + Navitoclax (first compound 0.04 µM); 1.07 with Cediranib + Navitoclax (first compound 0.1265 µM); 1.17 with Cediranib + Navitoclax (first compound 0.4 µM); 1.1 in the test with Cediranib + Navitoclax (first compound 1.265 µM); 1.41 with Cediranib + Navitoclax (first compound 4 µM); 0.812 with Cediranib + Bortezomib (first compound 0.04 µM). Besides, the relative viability in the test with Cediranib + Bortezomib (first compound 0.1265 µM) worked out at 0.557; with Cediranib + Bortezomib (first compound 0.4 µM), 0.926; with Cediranib + Bortezomib (first compound 1.265 µM) it was 0.713; in the test with Cediranib + Bortezomib (first compound 4 µM), 1.05; with Decitabine + Tozasertib (first compound 0.04 µM), 0.196; with Decitabine + Tozasertib (first compound 0.1265 µM), 0.236. The relative viability with Decitabine + Tozasertib (first compound 0.4 µM) came out at 0.188; with Decitabine + Tozasertib (first compound 1.265 µM), 0.191; with Decitabine + Tozasertib (first compound 4 µM) it was 0.176; in test [1] (first compound 0.001 µM), 0.478; in test [1] (first compound 0.003162 µM) it was 0.481; in test [1] (first compound 0.01 µM), 0.42. The relative viability in test [1] (first compound 0.03162 µM) amounted to 0.37; in test [1] (first compound 0.1 µM), 0.134.

With NCI-H2085, the relative viability with Cediranib + Navitoclax (first compound 0.04 µM) is 1.19; with Cediranib + Navitoclax (first compound 0.1265 µM) it was 1.04; with Cediranib + Navitoclax (first compound 0.4 µM), 1.13; with Cediranib + Navitoclax (first compound 1.265 µM) it was 1.09; with Cediranib + Navitoclax (first compound 4 µM) it was 1.26; with Cediranib + Bortezomib (first compound 0.04 µM) it was 1.1. The relative viability with Cediranib + Bortezomib (first compound 0.1265 µM) is 1.05; with Cediranib + Bortezomib (first compound 0.4 µM) it was 0.956; in the test with Cediranib + Bortezomib (first compound 1.265 µM), 0.97; in the test with Cediranib + Bortezomib (first compound 4 µM) it was 0.954; in the test with Decitabine + Tozasertib (first compound 0.04 µM), 0.666; in the test with Decitabine + Tozasertib (first compound 0.1265 µM) it was 0.669. Besides, the relative viability was 0.54 with Decitabine + Tozasertib (first compound 0.4 µM); 0.454 in the test with Decitabine + Tozasertib (first compound 1.265 µM); 0.437 with Decitabine + Tozasertib (first compound 4 µM); 0.58 in test [1] (first compound 0.001 µM); 0.407 in test [1] (first compound 0.003162 µM); 0.448 in test [1] (first compound 0.01 µM). Also, the relative viability in test [1] (first compound 0.03162 µM) worked out at 0.515; in test [1] (first compound 0.1 µM), 0.48.
